Where a name gives a salt, the structure may show the parent alone.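 Values below derive from 48-hour exposures of cells grown in 96-well plates, with endpoints linearly interpolated between the two concentrations bracketing the appropriate inhibition level. GI50 marks 50% less growth.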 Active and inactive are the calls of the source. Rule as the data show it: active = GI50 up to about 1.1 µM and inactive = higher.

Here are results for 21 compounds from ChEMBL document CHEMBL1201862, “PubChem BioAssay data set” (2004).

Some test systems named below: DLD-1; DMS-114; DMS-273; HOP-18; XF498; LXFL 529; RXF 631; BT-549; Hs-578T.
Holding throughout (experiment): growth of human tumour cells (NCI), 48 h

For the compound `O=[N+]([O-])c1ccc(Nc2cccc3c4cc[nH]c(-c5ccccc5)c-4nc23)c([N+](=O)[O-])c1`, the GI50 with DLD-1, in the test on DMS-114, in the test on DMS-273, with HOP-18 and in the test on XF498 was > 100 µM (inactive) in each case.

As for `CN1C(=N\S(=O)(=O)c2ccc(Cl)cc2)/C(=N/N=P(c2ccccc2)(c2ccccc2)c2ccccc2)c2ccccc21`, the GI50 in the test on DLD-1, in the test with DMS-273, in the test on LXFL 529, with RXF 631 and in the test on XF498 was > 100 µM (inactive) in each case.

Consider `COc1nc(N)c(NC(C)=O)c(=O)n1C`, for which the GI50 in the test with DLD-1, with DMS-114, with DMS-273, in the test with HOP-18, in the test with LXFL 529 and in the test on RXF 631 was > 100 µM (inactive) in each case. In the test on XF498, the GI50 is > 100 µM (inactive).

In the case of `Cc1ccc(Oc2ccc(C)cc2[N+](=O)[O-])cc1`, the GI50 was 77.4 µM (inactive) with DLD-1; 28.4 µM (inactive) in the test on DMS-114; > 100 µM (inactive) in the test on DMS-273; > 100 µM (inactive) with HOP-18; 43.6 µM (inactive) with LXFL 529; > 100 µM (inactive) in the test with RXF 631. Further, in the test on XF498, the GI50 is 0.275 µM (active).

For `CC1(C)OC(C(N)=O)=C(C(N)=O)O1`, the GI50 with DLD-1, in the test on DMS-114, in the test with DMS-273, in the test on HOP-18, in the test on LXFL 529 and in the test with XF498 was > 100 µM (inactive) throughout.

As to `CC1CCCP(=O)(c2ccccc2)CC1` (configuration not stated), the GI50 is > 100 µM (inactive) in the test with DLD-1; > 100 µM (inactive) in the test with DMS-114; > 100 µM (inactive) with DMS-273; 0.202 µM (active) in the test with HOP-18; > 100 µM (inactive) with LXFL 529; > 100 µM (inactive) with RXF 631.

As for `COc1ccc(-c2cc(N3CCN(c4ccc(Cl)cc4)CC3)c(C#N)c(=O)o2)cc1`, the GI50 with DLD-1 is 25.8 µM (inactive); in the test with DMS-114, 7.41 µM (inactive); in the test on DMS-273, 16.3 µM (inactive); in the test on HOP-18, 4.24 µM (inactive); with LXFL 529, 16.7 µM (inactive); in the test on XF498 it was 3.09 µM (inactive).

Consider `O=P(c1ccccc1)(c1ccccc1)C1CC=C(c2ccccc2)C2(CCCC2)C1` (configuration not stated), for which the GI50 is 48.9 µM (inactive) in the test on DLD-1; 34.4 µM (inactive) with DMS-114; > 100 µM (inactive) in the test with DMS-273; 25.6 µM (inactive) in the test with HOP-18; > 100 µM (inactive) in the test on LXFL 529; 40.1 µM (inactive) with RXF 631. Further, the GI50 in the test with XF498 is 65.5 µM (inactive).

For the compound `COc1ccc(C(=O)C(C(=O)C(=O)NCCCNC(=O)C(=O)C(C(=O)c2ccc(OC)cc2)c2ccc(OC)cc2)c2ccc(OC)cc2)cc1` (configuration not stated), the GI50 in the test with DLD-1, with DMS-114, in the test on DMS-273, with HOP-18, in the test on LXFL 529 and with XF498 was > 100 µM (inactive) each time.

In the case of `Cc1ccc(/C=C/C(=O)c2ccc([N+](=O)[O-])cc2)cc1`, the GI50 in the test with DLD-1 is 99.8 µM (inactive); in the test on DMS-273 it was > 100 µM (inactive); with HOP-18, > 100 µM (inactive); with LXFL 529 it was 74.3 µM (inactive); with RXF 631, > 100 µM (inactive); in the test on XF498, > 100 µM (inactive).

On to `Cc1ccc(NC(=O)/C(CC(=O)c2c[n+]([O-])c3ccccc3[n+]2[O-])=N\NC(=O)C[n+]2ccccc2)cc1`, for which the GI50 in the test on DLD-1, with DMS-114, in the test with DMS-273, in the test with HOP-18, with LXFL 529 and in the test on RXF 631 was > 100 µM (inactive) in each case. For the same compound, in the test with XF498, the GI50 is > 100 µM (inactive).

As for `CS(=O)(=O)OCCN(CCOS(C)(=O)=O)c1ccc(/C=N/c2ccc(-c3csc(COc4ccccc4)n3)cc2)cc1`, the GI50 with BT-549 is 10.7 µM (inactive); in the test with DLD-1, 13.1 µM (inactive); in the test on DMS-114, 5.85 µM (inactive); in the test with DMS-273, 0.46 µM (active); in the test on HOP-18, 5.25 µM (inactive); with Hs-578T, 15.1 µM (inactive). The GI50 with LXFL 529 was 12.1 µM (inactive); with XF498, 2.12 µM (inactive).

As for `Cc1cc(Cl)ccc1NC(=O)CCCC(=O)C(C(=O)c1ccccc1)c1ccccc1` (configuration not stated), the GI50 in the test on DLD-1, in the test on DMS-114, in the test on DMS-273, in the test with LXFL 529 and in the test on RXF 631 was > 100 µM (inactive) throughout.

Turning to `CCOC(=O)C1S/C(=N\c2ccc(C)c(C)c2)N=C1C` (configuration not stated), the GI50 with DLD-1, in the test on DMS-114, in the test on DMS-273, in the test with HOP-18, in the test on LXFL 529 and in the test on XF498 was > 100 µM (inactive) each time.

As for `C/C=C1/C(=Cc2[nH]c(C=c3[nH]/c(=C/C4=NC(=O)C(CC)=C4C)c(C)c3CCC(=O)O)c(CCC(=O)O)c2C)NC(=O)C1C` (configuration not stated), the GI50 is 2.58 µM (inactive) with DLD-1; 19.1 µM (inactive) with DMS-114; 5.45 µM (inactive) with DMS-273; 30.2 µM (inactive) in the test with HOP-18; 2.06 µM (inactive) in the test with LXFL 529; 6.65 µM (inactive) with RXF 631. For the same compound, the GI50 in the test with XF498 is 8.63 µM (inactive).

Regarding `COC(=O)C1=C(C(=O)OC)SC(=C(/N=N/c2ccccc2)c2ccccc2)S1`, the GI50 in the test on DLD-1 is > 100 µM (inactive); in the test with DMS-273 it was > 100 µM (inactive); with HOP-18, > 100 µM (inactive); with LXFL 529 it was 58.5 µM (inactive); in the test on RXF 631, > 100 µM (inactive).

As for `CC(=O)N[C@@H]1C(O)CN2C(=O)C(=O)O[C@H](C(O)CO)[C@@H]12` (some centres not stated), the GI50 with DLD-1 was > 100 µM (inactive); in the test with DMS-114, > 100 µM (inactive); with DMS-273 it was > 100 µM (inactive); in the test on HOP-18, 74 µM (inactive); in the test on LXFL 529, > 100 µM (inactive); with RXF 631 it was > 100 µM (inactive). In addition, the GI50 with XF498 was > 100 µM (inactive).

Turning to `CCOC(=O)Nc1ccc(S(=O)(=O)OC)cc1.CCOC(=O)Nc1ccc(S(=O)(=O)OC)cc1.NC(=O)NCCO`, the GI50 is 7.08 µM (inactive) with DLD-1; 22.1 µM (inactive) in the test with DMS-114; 29.2 µM (inactive) in the test with DMS-273; 49.4 µM (inactive) in the test on HOP-18; 29.4 µM (inactive) in the test on LXFL 529; 46.5 µM (inactive) in the test on RXF 631.

`Cc1nc(-n2nc(-c3ccccc3)cc2-c2ccccc2)sc1C(=O)/C=C/c1ccc(Cl)c(Cl)c1`: the GI50 in the test with DLD-1 is 13.4 µM (inactive); in the test on DMS-114, 33.3 µM (inactive); with DMS-273, 32.2 µM (inactive); in the test on LXFL 529, 15.3 µM (inactive); with RXF 631, 8.26 µM (inactive); with XF498 it was 17.1 µM (inactive).

As for `O=c1ccc2ccccc2o1` [COUMARIN], the GI50 in the test with DLD-1, with DMS-114, with HOP-18, in the test with LXFL 529 and in the test on XF498 was > 100 µM (inactive) each time.

As for `O=C1c2c(O)cccc2-c2nn(CCNCCO)c3ccc(NCCNCCO)c1c23` [LOSOXANTRONE HYDROCHLORIDE], the GI50 in the test on BT-549 is 0.182 µM (active); in the test on DLD-1, 1.24 µM (inactive); in the test with DMS-114, < 0.0104 µM (active); in the test on DMS-273, 0.0288 µM (active); in the test with HOP-18, 0.248 µM (active); in the test with Hs-578T it was 0.0791 µM (active). Besides, the GI50 was 0.107 µM (active) in the test with LXFL 529, 0.318 µM (active) in the test on RXF 631 and 0.0135 µM (active) in the test with XF498.
